The record followed here is BindingDB's records for doi:10.1021/acs.jmedchem.8b01602 (2018).

Assay [1] can be described thus: Inhibition of mouse GAT3 expressed in HEK293 cells assessed as reduction in [3H]GABA uptake preincubated for 25 mins followed by [3H]GABA addition and measured after 4 mins by liquid scintillation counting method.
A short description of assay [2]: Inhibition of mouse GAT2 expressed in HEK293 cells assessed as reduction in [3H]GABA uptake preincubated for 25 mins followed by [3H]GABA addition and measured after 10 mins by liquid scintillation counting method.
Assay [3] is described as follows: Non-competitive inhibition of human GAT1 expressed in COS cells assessed as reduction in [2H6]GABA uptake by measuring [2H6]GABA Kd(app) at 10 uM preincubated for 25 mins followed by [2H6]GABA addition and measured after 4 mins by liquid scintillation counting method (Rvb = 28.3 +/- 1.5 nM).
A short description of assay [4]: Non-competitive inhibition of human GAT1 expressed in COS cells assessed as reduction in [2H6]GABA uptake by measuring [2H6]GABA Kd(app) at 1 uM preincubated for 25 mins followed by [2H6]GABA addition and measured after 4 mins by liquid scintillation counting method (Rvb = 28.3 +/- 1.5 nM).

Consider `O=C(O)[C@H]1CNC[C@@H](CCN/N=C/c2ccc(-c3ccc(Cl)cc3Cl)o2)C1`, for which the IC50 (commonly the concentration needed to halve the response being measured) in assay [1] worked out at 25.7 µM; in assay [2], 53.7 µM.

For `O=C(O)[C@H]1CNC[C@@H](CN/N=C/c2ccc(-c3cc(C(F)(F)F)cc(C(F)(F)F)c3)o2)C1`, the Kd in assay [3] was determined as 0.154 µM; in assay [4], 0.058 µM.

Turning to `O=C(O)[C@H]1CNC[C@@H](CN/N=C/c2ccc(-c3cccc4ccccc34)o2)C1`, in assay [1], the IC50 was determined as 33.1 µM. Also, the Kd turned out to be 0.112 µM in assay [3] and 0.056 µM in assay [4].

As for `O=C(O)[C@H]1CNC[C@@H](CCN/N=C/c2ccc(-c3ccc(C(F)(F)F)cc3Cl)o2)C1`, the IC50 was found to be 58.9 µM in assay [1] and 53.7 µM in assay [2].
